Measurements as given in ChEMBL document CHEMBL1201862, “PubChem BioAssay data set” (2004).
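Following 48 hours of exposure in 96-well plates, responses at five concentrations were used to interpolate endpoints linearly. GI50 marks 50% less growth.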 The source made the active and inactive calls. No stated cut-off is given here; in the data, active = GI50 up to about 1.1 µM and inactive = higher.

Tests used:
Test in all cases: inhibition of tumour cell growth, NCI panel, 48 h
HL-60 = test system: HL-60
SK-OV-3 = test system: SK-OV-3
RXF 393 = test system: RXF 393
ACHN = test system: ACHN
MCF7 = test system: MCF7
COLO 205 = test system: COLO 205
OVCAR-8 = test system: OVCAR-8
SF-539 = test system: SF-539
SK-MEL-28 = test system: SK-MEL-28
EKVX = test system: EKVX
SN12C = test system: SN12C
KM12 = test system: KM12
K562 = test system: K562
U-251 = test system: U-251
UACC-62 = test system: UACC-62
MOLT-4 = test system: MOLT-4
Hs-578T = test system: Hs-578T
HT-29 = test system: HT-29
LOX IMVI = test system: LOX IMVI
HCT-15 = test system: HCT-15
DU-145 = test system: DU-145
UO-31 = test system: UO-31
HCT-116 = test system: HCT-116
NCI/ADR-RES = test system: NCI/ADR-RES
SNB-75 = test system: SNB-75
OVCAR-5 = test system: OVCAR-5
A549 = test system: A549
CAKI-1 = test system: CAKI-1
SNB-19 = test system: SNB-19
IGROV-1 = test system: IGROV-1
SF-268 = test system: SF-268
NCI-H460 = test system: NCI-H460
786-0 = test system: 786-0
NCI-H522 = test system: NCI-H522
TK-10 = test system: TK-10
SK-MEL-5 = test system: SK-MEL-5
HOP-62 = test system: HOP-62
Malme-3M = test system: Malme-3M
MDA-MB-435 = test system: MDA-MB-435
OVCAR-4 = test system: OVCAR-4
T47D = test system: T47D
HCC 2998 = test system: HCC 2998
PC-3 = test system: PC-3
UACC-257 = test system: UACC-257
MDA-N = test system: MDA-N
OVCAR-3 = test system: OVCAR-3
BT-549 = test system: BT-549
SW-620 = test system: SW-620
NCI-H23 = test system: NCI-H23
SF-295 = test system: SF-295
HOP-92 = test system: HOP-92
A498 = test system: A498
MDA-MB-231 = test system: MDA-MB-231
SK-MEL-2 = test system: SK-MEL-2
M14 = test system: M14
SR = test system: SR
NCI-H226 = test system: NCI-H226
CCRF-CEM = test system: CCRF-CEM
RPMI-8226 = test system: RPMI-8226

Measured: GI50

S=c1scc(-c2ccc(Cl)cc2)n1OC1CCCC1
21.8 µM: HCT-15
inactive: HL-60 22 µM | SK-OV-3 36.2 µM | RXF 393 17.1 µM | ACHN 25.5 µM | MCF7 27 µM | COLO 205 12 µM | OVCAR-8 33.8 µM | SF-539 10.8 µM | SK-MEL-28 72.4 µM | EKVX 28.1 µM | SN12C 35.8 µM | KM12 18.5 µM | K562 16.1 µM | U-251 15.6 µM | UACC-62 24.4 µM | MOLT-4 15.9 µM | Hs-578T 82.6 µM | HT-29 20.9 µM | LOX IMVI 23.6 µM | DU-145 29.4 µM | UO-31 40.6 µM | HCT-116 22.2 µM | NCI/ADR-RES 23.8 µM | SNB-75 36.5 µM | OVCAR-5 52.2 µM | A549 26.2 µM | CAKI-1 47.2 µM | SNB-19 69 µM | IGROV-1 48.8 µM | SF-268 72.9 µM | NCI-H460 25.2 µM | 786-0 37 µM | NCI-H522 16.4 µM | TK-10 72.8 µM | SK-MEL-5 11.4 µM | HOP-62 36.7 µM | Malme-3M 56.2 µM | MDA-MB-435 15.7 µM | OVCAR-4 16.7 µM | T47D 12.9 µM | HCC 2998 23.9 µM | PC-3 29.9 µM | UACC-257 27 µM | MDA-N 21.6 µM | OVCAR-3 16.7 µM | BT-549 30.2 µM | SW-620 32.7 µM | NCI-H23 16.9 µM | SF-295 30.5 µM | HOP-92 21.3 µM | A498 26.1 µM | MDA-MB-231 39.5 µM | SK-MEL-2 18.3 µM | M14 36.9 µM

Cc1nc(Nc2nc3ccccc3[nH]2)nc(Cl)c1CCCl
inactive: HL-60 > 100 µM | ACHN > 100 µM | COLO 205 > 100 µM | OVCAR-8 > 100 µM | SF-539 > 100 µM | SK-MEL-28 > 100 µM | EKVX > 100 µM | SN12C > 100 µM | KM12 > 100 µM | K562 > 100 µM | U-251 49 µM | UACC-62 > 100 µM | MOLT-4 > 100 µM | Hs-578T 83.8 µM | HT-29 > 100 µM | DU-145 > 100 µM | UO-31 > 100 µM | SR > 100 µM | HCT-116 > 100 µM | NCI/ADR-RES > 100 µM | SNB-75 89.3 µM | A549 > 100 µM | CAKI-1 > 100 µM | SNB-19 > 100 µM | IGROV-1 > 100 µM | SF-268 95.7 µM | NCI-H460 > 100 µM | 786-0 > 100 µM | NCI-H522 > 100 µM | TK-10 > 100 µM | SK-MEL-5 > 100 µM | Malme-3M > 100 µM | MDA-MB-435 > 100 µM | OVCAR-4 > 100 µM | T47D > 100 µM | PC-3 > 100 µM | UACC-257 > 100 µM | NCI-H226 > 100 µM | MDA-N > 100 µM | BT-549 > 100 µM | CCRF-CEM > 100 µM | SW-620 > 100 µM | NCI-H23 > 100 µM | A498 > 100 µM | MDA-MB-231 > 100 µM | RPMI-8226 > 100 µM | SK-MEL-2 > 100 µM | M14 > 100 µM
active: HOP-92 < 0.01 µM
> 100 µM: HCT-15

O=[N+]([O-])c1ccc2c(c1)Cc1cc(/N=C/c3ccc4c(c3)OCO4)ccc1-2
inactive: HL-60 > 100 µM | SK-OV-3 > 100 µM | RXF 393 > 100 µM | ACHN > 100 µM | MCF7 > 100 µM | COLO 205 > 100 µM | OVCAR-8 > 100 µM | SF-539 > 100 µM | SK-MEL-28 > 100 µM | EKVX 57.1 µM | SN12C > 100 µM | KM12 > 100 µM | K562 > 100 µM | U-251 > 100 µM | UACC-62 > 100 µM | MOLT-4 > 100 µM | Hs-578T 80 µM | HT-29 > 100 µM | LOX IMVI > 100 µM | DU-145 > 100 µM | UO-31 > 100 µM | HCT-116 > 100 µM | NCI/ADR-RES > 100 µM | SNB-75 89.7 µM | OVCAR-5 > 100 µM | A549 > 100 µM | CAKI-1 > 100 µM | SNB-19 > 100 µM | IGROV-1 > 100 µM | SF-268 > 100 µM | NCI-H460 > 100 µM | 786-0 > 100 µM | NCI-H522 > 100 µM | TK-10 > 100 µM | SK-MEL-5 > 100 µM | HOP-62 > 100 µM | Malme-3M > 100 µM | MDA-MB-435 > 100 µM | OVCAR-4 > 100 µM | T47D > 100 µM | PC-3 > 100 µM | UACC-257 > 100 µM | NCI-H226 > 100 µM | MDA-N > 100 µM | OVCAR-3 > 100 µM | BT-549 > 100 µM | CCRF-CEM 61.9 µM | SW-620 > 100 µM | NCI-H23 > 100 µM | SF-295 > 100 µM | HOP-92 > 100 µM | A498 > 100 µM | MDA-MB-231 > 100 µM | RPMI-8226 > 100 µM | SK-MEL-2 > 100 µM | M14 > 100 µM
> 100 µM: HCT-15

O=C(O)C(Cc1ccccc1)N1C(=O)c2ccccc2C1=O (configuration not stated)
active: HL-60 0.0472 µM
> 100 µM: HCT-15
inactive: SK-OV-3 > 100 µM | RXF 393 > 100 µM | ACHN > 100 µM | MCF7 > 100 µM | COLO 205 > 100 µM | OVCAR-8 > 100 µM | SF-539 > 100 µM | SK-MEL-28 14.4 µM | EKVX 93.1 µM | SN12C > 100 µM | KM12 > 100 µM | K562 > 100 µM | U-251 > 100 µM | UACC-62 > 100 µM | MOLT-4 > 100 µM | Hs-578T > 100 µM | HT-29 > 100 µM | LOX IMVI > 100 µM | DU-145 > 100 µM | UO-31 > 100 µM | HCT-116 > 100 µM | NCI/ADR-RES > 100 µM | OVCAR-5 > 100 µM | A549 > 100 µM | CAKI-1 > 100 µM | SNB-19 > 100 µM | IGROV-1 > 100 µM | SF-268 > 100 µM | NCI-H460 > 100 µM | 786-0 > 100 µM | NCI-H522 > 100 µM | TK-10 > 100 µM | SK-MEL-5 > 100 µM | HOP-62 > 100 µM | Malme-3M > 100 µM | MDA-MB-435 > 100 µM | OVCAR-4 > 100 µM | T47D > 100 µM | HCC 2998 > 100 µM | PC-3 > 100 µM | UACC-257 > 100 µM | NCI-H226 > 100 µM | MDA-N > 100 µM | OVCAR-3 > 100 µM | BT-549 > 100 µM | CCRF-CEM 4.01 µM | SW-620 18.7 µM | NCI-H23 > 100 µM | SF-295 > 100 µM | HOP-92 29.2 µM | A498 > 100 µM | MDA-MB-231 > 100 µM | RPMI-8226 > 100 µM | SK-MEL-2 > 100 µM | M14 > 100 µM

COc1ccc(/C(Nc2ccccc2)=C(\CCl)c2ccccc2)cc1OC
40.7 µM: HCT-15
inactive: HL-60 18.9 µM | SK-OV-3 > 100 µM | RXF 393 83.8 µM | ACHN 31.9 µM | MCF7 26.4 µM | COLO 205 71.6 µM | OVCAR-8 35.2 µM | SF-539 > 100 µM | SK-MEL-28 82 µM | EKVX 24.3 µM | SN12C 36.7 µM | KM12 57.1 µM | K562 15.7 µM | U-251 6.53 µM | UACC-62 99.1 µM | MOLT-4 29.6 µM | Hs-578T > 100 µM | HT-29 34.9 µM | LOX IMVI 10.1 µM | DU-145 86.3 µM | UO-31 37.2 µM | HCT-116 17.7 µM | NCI/ADR-RES 32.1 µM | SNB-75 63.2 µM | OVCAR-5 > 100 µM | A549 44.6 µM | CAKI-1 > 100 µM | SNB-19 > 100 µM | IGROV-1 > 100 µM | SF-268 97.1 µM | NCI-H460 41.8 µM | 786-0 55.8 µM | NCI-H522 16.7 µM | TK-10 41.5 µM | SK-MEL-5 22.2 µM | HOP-62 > 100 µM | Malme-3M 37.2 µM | MDA-MB-435 32.8 µM | OVCAR-4 35.7 µM | T47D 35.5 µM | HCC 2998 48.1 µM | PC-3 39.4 µM | UACC-257 29.2 µM | NCI-H226 30.9 µM | MDA-N 35.7 µM | OVCAR-3 35.7 µM | BT-549 33.2 µM | CCRF-CEM 17.3 µM | SW-620 46.2 µM | NCI-H23 45.9 µM | SF-295 49.2 µM | HOP-92 37.6 µM | A498 > 100 µM | MDA-MB-231 50.4 µM | RPMI-8226 21.2 µM | SK-MEL-2 24.1 µM | M14 41.4 µM
